Measurements published in US20220290196A1, “GENETICALLY ENGINEERED MICROBES AND BIOSYNTHETIC METHODS” (The Regents of the University of California, priority 2019, published 2022).
Several values for one entry are separate records, joined by “and”; a condition that tells them apart may be missing. Equal entries are not always repeated.

Legend:
[1] = tested on: Tar14, Tar13, and Tar13/16; assay: In vitro assays with Tar14, Tar13, and Tar13/16 (FIG. 20 summary); type: biochemical, Saccharomonospora sp. CNQ-490; conditions: Tar14, Tar13, Tar13/16
[2] = Deformylation of N-formyl-L-4-Cl-Kyn on purification/lyophilization; type: physicochemical; conditions: mildly acidic purification conditions / after lyophilization
Experimental: N-formyl-L-4-Cl-kynurenine (10): The Tar13 biochemical assay was scaled to 57.6 mL (six 96 well plates with 100 μL reaction mixture as described in section 8 in each well). After overnight incubation, the assays were pooled together, frozen on dry ice, and lyophilized. The dried sample was redissolved in a 4000 μL of water/methanol (1/1) mixture and subjected to purification by preparative HPLC using method 8. Organic solvent from combined fractions (checked by direct injection into the Bruker Ion Trap mass spectrometer) was removed by evaporation at reduced pressure and the aqueous sample was frozen following by lyophilization. Due to the presence of closely eluting impurities, further purification step using semi-preparative HPLC and method 6 was used. The target peak was collected manually. After removing organic solvent under reduced pressure and lyophilization, the desired product 10 (1.8 mg) was obtained.

Tar13 = Tar13 in vitro assay with substrate analogues; type: biochemical, Saccharomonospora sp. CNQ-490
Experimental: Tar13. Upon testing different reaction compositions (buffers, concentration of ascorbic acids and hemin, pH), the following conditions were found as optimal:
(§1) Buffer: up to 50 μL (50 mM Tris, 500 mM NaCl 10% glycerol, pH 8.0)
(§2) In a separate Eppendorf tube premix:
Add substrate solution to the enzyme mixture to start reaction
When Tar13 was directly added to the enzyme reaction, immediate protein precipitation occurred. The same was observed if the enzyme was not pre-mixed with hemin and ascorbic acid. Full substrate conversion was achieved after overnight incubation at 30° C. in 1.5 mL Eppendorf tube with shaking. The reactions were quenched by addition of equal volume of HPLC grade methanol.

Tar14 = Tar14 in vitro halogenation assay with substrate analogues; type: biochemical, Saccharomonospora sp. CNQ-490
Experimental: Tar14. Tar14 reaction mixture of total volume 100 μL in 1.5 mL Eppendorf tube was composed of the following components:
Buffer (10 mM Tris, 10% glycerol, pH 7.6): up to 100 μL

Tar16 = assay: Coupled Tar13/Tar16 assay (Tar16 substrate generated in situ by Tar13); type: biochemical, Saccharomonospora sp. CNQ-490; conditions: substrates generated in situ by Tar13; Tar16 10 μM; overnight at 30° C.
Experimental: Coupled Tar13 Tar]6. The reaction mixture of total volume 100 μL in 1.5 mL Eppendorf tube was composed of the following components:
Buffer: up to 50 μL (50 mM Tris, 500 mM NaCl 10% glycerol, pH 8.0
Substrate (for Tar13 enzyme): 0.25 μM
as §2
Buffer: up to […] (50 mM Tris, 500 mM NaCl 10% glycerol, pH 8.0)
Add substrate solution to the enzyme mixture to start reaction.
No difference in conversion was observed when Tar16 was added into the assay mixture either together with Tar13, or after 2 h of incubation at 30° C., or after overnight incubation at 30° C., followed by another 4 h of incubation after addition of Tar16. Therefore, for convenience, all components were mixed at the same time point, the reactions were incubated at 30° C. overnight, after which the assays were quenched by addition of equal volume of HPLC grade methanol.

[3] = tested on: S. coelicolor M1146-tarM1Δtar14; assay: Feeding/chemical complementation experiment, incorporation into taromycin; type: cell-based, Streptomyces coelicolor; conditions: incorporation at residue-1 and residue-13; analogue fed at 2 mM; judged by comparison to taromycin yields by S. coelicolor M1146-tarM1
Experimental: For taromycin production, seed culture in TSBY medium was inoculated with corresponding S. coelicolor spore suspension (collected from fresh SFM plates) and was cultured for 36-48 h till a dense creamy consistency was reached. Kanamycin at 10 μg mL^−1 final concentration was added to the seed cultures of S. coelicolor M1146-pCAP01-tarM1 and S. coelicolor M1146-pCAP01-tarM1Δtar14. Inocula of seed culture (5%, v/v) were used for fermentation in MP medium (1% glucose, 1% soluble starch, 0.4% peptone, 0.3% yeast extract, 0.3% soytone, 0.2% meat extract, 0.2% CaCO3, and 0.5% NaCl, pH 7.2). Fermentation was carried out at 30° C. and 220 rpm in a rotary incubator for 6 days. A maximum of 40 mL of production medium was added into 250 mL flask with metal springs.
S. coelicolor M1146-pCAP01-tarM1Δtar14 cultures were grown as described in Section 3 for taromycin production. After 18 and 36 h of cultivation, tryptophan analogues in the form of water suspension were added to the production cultures to a final concentration 2 mM. The cultures were further incubated for 5 days before extraction and further analysis by LC-HRMS^n. All experiments were repeated independently twice with three replicates for each compound. In parallel, cultures of S. coelicolor M1146-pCAP01-tarM1 and S. coelicolor M1146-pCAP01-tarM1Δtar14 were grown as controls.
To analyze production of taromycins and analogues, solid phase extraction of the culture supernatants was performed with Amberlite XAD-16 resin (SIGMA). For analytical purposes around 1 g of washed and equilibrated resin was added to 20 mL of supernatant followed by shaking for 30-60 min. Samples were then spun down and decanted. The resin was washed twice with water (15 mL), before elution with methanol (5 mL). The methanol extracts from the resin were used for LCMS analysis without additional concentration step.

Tar13 Tar14 Tar16 = assay: One-pot Tar13/Tar14/Tar16 conversion of L-Trp to L-4-Cl-Kyn; type: biochemical, Saccharomonospora sp. CNQ-490
Experimental: Buffer: up to 100 μL (50 mM Tris, 500 mM NaCl (or KBr) 10% glycerol, pH 8.0)
(§3) Tar14 (added last): 2.5 μM
Incubate 45 min at 30° C., followed by addition of premixed:
Buffer: up to 50 μL (50 mM Tris, 500 mM NaCl (or KBr) 10% glycerol, pH 8.0)
The reactions were incubated at 30° C. overnight, after which the assays were quenched by addition of equal volume of HPLC grade methanol and frozen at −70° C. till further analysis by LCMS.

[4] = substrate: N[C@@H](Cc1c[nH]c2cc(Cl)ccc12)C(=O)O; assay: Kinetic characterization of Tar13-catalyzed oxidation of L-6-Cl-tryptophan; type: biochemical, Saccharomonospora sp. CNQ-490; conditions: other: Tar13, L-6-Cl-Trp, 30° C., pH 8.0
Experimental: To determine kinetic parameters for Tar13-catalyzed oxidation of L-6-Cl-tryptophan, the following reaction conditions were used:
as §1, §2
The enzyme mixture was added to the substrate solution to start the reactions. The reactions were incubated at 30° C. for 5, 10, 15, 30 min, after which the assays were quenched by addition of equal volume of HPLC grade methanol and frozen at −70° C. till further analysis by HPLC. All assays were performed in triplicates for each substrate concentration and every time point. In parallel, for each time point and substrate concentration, assays with no added enzyme were used as controls. Prior HPLC analysis (method 5), L-tryptophan was added to the quenched reaction mixtures as an internal standard for quantification.
Product formation was quantitated by calculating decrease of the area of the remaining substrate in comparison to the substrate peak area in the control with no enzyme added, and the ratio of peak areas to internal standard were fitted into a calibration curve to determine product concentrations.

[5] = substrate: N[C@@H](Cc1c[nH]c2ccccc12)C(=O)O; assay: Kinetic characterization of Tar14-catalyzed chlorination of L-tryptophan; type: biochemical, Saccharomonospora sp. CNQ-490; conditions: other: Tar14, L-Trp chlorination, 30° C., pH 7.6
Excerpt: To determine kinetic parameters for Tar14-catalyzed chlorination of L-tryptophan, phenol was first tested as an internal standard for quantification of the product (L-6-chlorotryptophan) formation. An HPLC method that gives separation of substrate/product/internal standard peaks (method 4) was developed (FIGS. 10A and 108). It was also verified that activity of Tar14 was not affected by the presence of phenol in the reaction mixture. Using commercial standard of L-6-chlorotryptophan and phenol mixed at known concentrations, a calibration curve was built (FIGS. 10A and 10B).
Tar14 reaction mixture of total volume 100 μL in 1.5 mL Eppendorf tube was composed of the following components:
Buffer (10 mM Tris, 10% glycerol, pH 7.6) up to 100 μL
as §3
The reactions were incubated at 30° C. for 5, 10, 25, 45, 60, 120, and 240 min, after which the assays were quenched by addition of equal volume of HPLC grade methanol and frozen at −70° C. till further analysis by HPLC. All assays were performed in triplicates for each substrate concentration and every time point. In parallel, for each time point and substrate concentration, assays with no added phenol and with no added enzyme were used as controls.
Product formation was quantitated by calculating the ratio of peak areas of product to internal standard and fitting that value to a calibration curve. […]

N[C@@H](Cc1ccc(O)cc1)C(=O)O [Compound 23, L-tyrosine]
Conversion by any of the enzymes [1]: not converted by any of the enzymes

N[C@@H](CC(=O)c1ccc(Cl)cc1NC=O)C(=O)O [Compound 10, N-formyl-L-4-Cl-kynurenine]
Stability: deformylation to L-4-Cl-Kyn (1) [2]: partial deformylation

N[C@@H](Cc1ccccc1)C(=O)O [Compound 24, L-phenylalanine]
Conversion by any of the enzymes [1]: not converted by any of the enzymes

NCCc1c[nH]c2ccc(O)cc12 [Compound 22, serotonine]
Conversion by any of the enzymes [1]: not converted by any of the enzymes

N[C@@H](Cc1c[nH]c2ccccc12)C(=O)O [Compound 4, L-tryptophan]
Conversion/activity as substrate for Tar13 (Tar13): only trace activity
Enzyme assays, % conversion, Tar13 (Tar13; substrate 0.25 mM, Tar13 20 μM, overnight at 30° C.): 15%
Enzyme assays, % conversion, Tar14, Br^− (Tar14; KBr 100 mM, substrate 0.25 mM, Tar14 5 μM, 30° C., 4 h): 100%
Enzyme assays, % conversion, Tar14, Cl^− (Tar14; NaCl 100 mM, substrate 0.25 mM, Tar14 5 μM, 30° C., 4 h): 100%
Iodination by Tar14 (Tar14; incubated with iodide): No iodinated tryptophan products were detected
Enzyme assays, % conversion, Tar16 (Tar16): 100%
Feeding, % incorporation, A1 + A13 domain [3]: <5%
Production of L-4-Cl-Kyn from L-Trp in one-pot reaction (Tar13 Tar14 Tar16): below 1%

B1: Saccharomonospora sp. CNQ-490 Tar13 (tryptophan 2,3-dioxygenase), wild type, SEQ ID NO: 1 (expressed SEQ ID NO: 2) (Saccharomonospora piscinae) (protein)
chain: MTERTATRTEPAYGEILRLDELLELACVNDEADRALFLSAHQACEIWFAVVLRHLEDVTDALSLDDGATAAELLERLPRIITVIIEHFEVLGTLKPEAFDRIRADLGSSSGFQSVQYREIEYLCGARDTRFLNTAGFRDRDRRRLRERLAKRSLSNVFLEYRGRAGDRDACRISDALHEFDDSVRALRLRHAGIAELFLGSIPGTAGTAGAAYLRRSASRTLFPELFDRRASGTGG
Vmax [4]: 0.061 ± 0.006 µM/s
kcat [4]: 0.03 s⁻¹ and 0.031 ± 0.003 s⁻¹

B2: Saccharomonospora sp. CNQ-490 Tar14 (flavin-dependent tryptophan halogenase), wild type, SEQ ID NO: 3 (expressed SEQ ID NO: 4; expressed with cleaved His tag … (protein)
chain: MSVSGSERSAEGNRKKRVVIVGGGTAGWMTASYLTAAFGDRVDLTVVESAQIGTIGVGEATFSDIRHFFEFLRLEESDWMPECNATYKLAVRFENWREPGHHFYHPFEQMSSVDGFPLSDWWLRNPTTSRFDKDSFVMTSLCDAGVSPRYLDGSLIDQDFVEQERDDDSARSTIAEYQGAQFPYAYHFEAHLLAKYLTGYATRRGTRHIVDNVVDVALDERGWISHVRTEEHGDLEADLFVDCTGFRGLLLNKALGEPFVSYQDTLPNDSAVALQVPLDMEREPIRPCTTATAQEAGWIWTIPLISRVGTGYVYASDYTTPEQAERVLRDFVGPAAADVPANHIKMRIGRSRRSWVNNCVGVGLSSGFVEPLESTGIFFIHHAIEQIVKYFPSGGAGDDRLRELYNRSVGHVMDGVREFLVLHYRSAKRADNQYWKDTKTRTVPDSLAERIEFWKHKVPDAETVYPYYHGLPPYSYNCILLGMGGIDVNYSPALDWANEKAALAEFERIRVKAEKLVQELPTQNEYFAAMRAGR
notes: flavin reductase Tar15 and PtdH as helper enzymes
Km [5]: 12.0 ± 1.9 µM
